Measured values from patent publication US9573966B2, “Anti-cancer activity of novel bicyclic heterocycles” (Katholieke Universiteit Leuven, K.U.Leuven R&D, priority 2010, dated 2017).

Legend:
HL-60 cells = assay: Inhibition of HL-60 leukemic cell line proliferation (WST-1); format: cell-based, human; settings: cytotoxicity on HL-60 cells, two days incubation, WST-1 read-out
Protocol: (§1) HL-60 cell line, a human promyelocytic leukemia (ATCC; CCL-240) cell line, was grown in RPMI-1640 medium (Lonza, Belgium) supplemented with 10% fetal calf serum (Hyclone, US) and antibiotics. Exponential growing phase cells were seed in flat bottom 96-well microplates (TTP, Switzerland) at 50000 cells per well in 220 μl of medium with compounds (in different concentrations) and incubated for two days at 37° C., 5% CO2. After incubation, 100 μl of supernatant were removed and 10 μl of WST-1 (Roche, Switzerland) were added. After 2 hour incubation at 37° C., 5% CO2, optical densities were measured at 450 nm. Proliferation is calculated with respect of control points (no compound and treatment with Triton X100 to have maximum and minimum proliferation data). The IC50 was determined from a graph with at least four points, each derived from the mean of at least 2 experiments. […] The results are shown in Table 2 for a number of compounds.

HSB-2 cells = assay: Inhibition of HSB-2 leukemic cell line proliferation (WST-1); format: cell-based, human; settings: cytotoxicity on HSB-2 cells, two days incubation, WST-1 read-out
Protocol: as §1, with “HSB2 cell” for “HL-60 cell”, “human acute lymphoblastic” for “human promyelocytic”, “(ATCC; CCL-120.1)” for “(ATCC; CCL-240)”, “Table 1” for “Table 2”

## Nc1nc(N2CCN(C(=O)COc3ccccc3)CC2)c2nc(-c3ccc(F)cc3)[nH]c2n1 [Example 401, 1-(4-(2-amino-8-(4-fluorophenyl)-9H-purin-6-yl)piperazin-1-yl)-2-phenoxyethanone]
HL-60 cells; Homo sapiens, 48 h
  IC50: > 10 µM
HSB-2 cells; Homo sapiens, HSB2, 48 h
  IC50: > 10 µM

## CSc1nc2c(N3CCN(C(=O)COc4ccc(Cl)cc4)CC3)nc(N)nc2[nH]1 [Example 424, 1-(4-(2-amino-8-(methylthio)-9H-purin-6-yl)piperazin-1-yl)-2-(4-chlorophenoxy)ethanone]
HL-60 cells; Homo sapiens, 48 h
  IC50: 0.01 µM
HSB-2 cells; Homo sapiens, HSB2, 48 h
  IC50: 4.6 µM

## COCc1nc2c(N3CCN(C(=O)COc4ccc(Cl)cc4)CC3)nc(N)nc2o1 [Example 186, 5-amino-7-[4-(4-chlorophenoxyacetyl)piperazin-1-yl]-2-methoxylmethyloxazolo[5,4-d]pyrimidine]
HL-60 cells; Homo sapiens, 48 h
  IC50: > 10 µM
HSB-2 cells; Homo sapiens, HSB2, 48 h
  IC50: > 10 µM

## COc1ccc(OCC(=O)N2CCN(c3nc(N)nc4sc(-c5ccccc5)nc34)CC2)cc1 [Example 208, 1-(4-(5-amino-2-phenylthiazolo[5,4-d]pyrimidin-7-yl)piperazin-1-yl)-2-(4-methoxyphenoxy)ethanone]
HL-60 cells; Homo sapiens, 48 h
  IC50: 0.07 µM
HSB-2 cells; Homo sapiens, HSB2, 48 h
  IC50: 0.06 µM

## COc1ccccc1NC(=O)N1CCN(c2nc(N)nc3sc(-c4ccc(F)cc4)nc23)CC1 [Example 219, 4-(5-amino-2-(4-fluorophenyl)thiazolo[5,4-d]pyrimidin-7-yl)-N-(2-methoxyphenyl)piperazine-1-carboxamide]
HL-60 cells; Homo sapiens, 48 h
  IC50: 6.19 µM
HSB-2 cells; Homo sapiens, HSB2, 48 h
  IC50: 5.83 µM

## COc1ccc(OCC(=O)N2CCN(c3nc(N)nc4sc(-c5ccc(Cl)cc5)nc34)CC2)cc1 [Example 270, 1-(4-(5-amino-2-(4-chlorophenyl)thiazolo[5,4-d]pyrimidin-7-yl)piperazin-1-yl)-2-(4-methoxyphenoxy)ethanone]
HL-60 cells; Homo sapiens, 48 h
  IC50: 0.45 µM
HSB-2 cells; Homo sapiens, HSB2, 48 h
  IC50: 0.18 µM

## Nc1nc(N2CCN(C(=O)COc3ccc(Cl)cc3)CC2)c2nc(C3CCCCC3)sc2n1 [Example 120, 5-amino-7-[4-(4-chlorophenoxyacetyl)piperazin-1-yl]-2-cyclohexylthiazolo[5,4-d]pyrimidine]
HL-60 cells; Homo sapiens, 48 h
  IC50: > 10 µM
HSB-2 cells; Homo sapiens, HSB2, 48 h
  IC50: 4.87 µM

## Cc1cccc(NC(=O)N2CCN(c3nc(N)nc4sc(CCc5ccc(F)cc5)nc34)CC2)c1 [Example 133, 5-amino-2-[2-(4-fluorophenyl)ethyl]-7-(4-m-tolylcarbamoylpiperazin-1-yl)-thiazolo[5,4-d]pyrimidine]
HL-60 cells; Homo sapiens, 48 h
  IC50: > 10 µM
HSB-2 cells; Homo sapiens, HSB2, 48 h
  IC50: 12.3 µM

## Cc1cc(Cl)ccc1OCC(=O)N1CCN(c2nc(N)nc3sc(-c4ccc(F)cc4)nc23)CC1 [Example 213, 1-(4-(5-amino-2-(4-fluorophenyl)thiazolo[5,4-d]pyrimidin-7-yl)piperazin-1-yl)-2-(4-chloro-2-methylphenoxy)ethanone]
HL-60 cells; Homo sapiens, 48 h
  IC50: 6.72 µM
HSB-2 cells; Homo sapiens, HSB2, 48 h
  IC50: 5.25 µM

## Nc1nc(N2CC[C@@H](NC(=O)c3ccc(Cl)cc3)C2)c2cc(-c3ccc(F)cc3)sc2n1 [Example 341, (R)—N-(1-(2-amino-6-(4-fluorophenyl)thieno[2,3-d]pyrimidin-4-yl)pyrrolidin-3-yl)-4-chlorobenzamide]
HL-60 cells; Homo sapiens, 48 h
  IC50: > 10 µM
HSB-2 cells; Homo sapiens, HSB2, 48 h
  IC50: > 10 µM

## CCC(c1ccc(F)cc1)c1nc2c(N3CCN(C(=O)COc4ccc(Cl)cc4)CC3)nc(N)nc2s1 (stereo not drawn) [Example 150, 5-amino-2-[1-(4-fluorophenyl)propyl]-7-(4-[2-(4-chlorophenoxy)acetyl]piperazin-1-yl)thiazolo[5,4-d]pyrimidine]
HL-60 cells; Homo sapiens, 48 h
  IC50: > 10 µM
HSB-2 cells; Homo sapiens, HSB2, 48 h
  IC50: > 10 µM

## Nc1nc(N2CCN(C(=O)Nc3ccc(Cl)cc3)CC2)c2nc(-c3cccnc3)sc2n1 [Example 277, 4-(5-amino-2-(pyridin-3-yl)thiazolo[5,4-d]pyrimidin-7-yl)-N-(4-chlorophenyl)piperazine-1-carboxamide]
HL-60 cells; Homo sapiens, 48 h
  IC50: 0.83 µM
HSB-2 cells; Homo sapiens, HSB2, 48 h
  IC50: 0.74 µM

## Cc1cccc(OCC(=O)N2CCN(c3nc(N)nc4sc(-c5ccco5)nc34)CC2)c1 [Example 210, 1-(4-(5-amino-2-(furan-2-yl)thiazolo[5,4-d]pyrimidin-7-yl)piperazin-1-yl)-2-(m-tolyloxy)ethanone]
HL-60 cells; Homo sapiens, 48 h
  IC50: 0.39 µM
HSB-2 cells; Homo sapiens, HSB2, 48 h
  IC50: 0.48 µM

## Cc1cccc(NC(=O)N2CCN(c3nc(N)nc4oc(CCc5ccc(F)cc5)nc34)CC2)c1 [Example 196, 5-amino-2-[2-(4-fluorophenyl)ethyl]-7-(4-m-tolylcarbamoylpiperazin-1-yl)-oxazolo[5,4-d]pyrimidine]
HL-60 cells; Homo sapiens, 48 h
  IC50: > 10 µM
HSB-2 cells; Homo sapiens, HSB2, 48 h
  IC50: > 10 µM

## Nc1nc(N2CCN(C(=O)COc3ccc(Cl)cc3)CC2)c2nc(-c3ccc(Cl)cc3)[nH]c2n1 [Example 392, 1-(4-(2-amino-8-(4-chlorophenyl)-9H-purin-6-yl)piperazin-1-yl)-2-(4-chlorophenoxy)ethanone]
HL-60 cells; Homo sapiens, 48 h
  IC50: 3.14 µM
HSB-2 cells; Homo sapiens, HSB2, 48 h
  IC50: 2.23 µM

## Cn1c(-c2ccc(F)cc2)nc2c(N3CCN(C(=O)COc4ccc(Cl)cc4)CC3)nc(N)nc21 [Example 430, 1-(4-(2-amino-8-(4-fluorophenyl)-9-methyl-9H-purin-6-yl)piperazin-1-yl)-2-(4-chlorophenoxy)ethanone]
HL-60 cells; Homo sapiens, 48 h
  IC50: 0.99 µM
HSB-2 cells; Homo sapiens, HSB2, 48 h
  IC50: 3.5 µM

## Nc1nc(N2CCN(C(=O)COc3ccccc3)CC2)c2nc(-c3ccc(F)cc3)sc2n1 [Example 130, 5-amino-2-(4-fluorophenyl)-7-(4-(2-phenoxyacetyl)-piperazin-1-yl)-thiazolo[5,4-d]pyrimidine]
HL-60 cells; Homo sapiens, 48 h
  IC50: 0.82 µM
HSB-2 cells; Homo sapiens, HSB2, 48 h
  IC50: 0.57 µM

## CCCc1nc2c(N3CCN(C(=O)COc4ccc(Cl)cc4)CC3)nc(N)nc2[nH]1 [Example 397, 1-(4-(2-amino-8-propyl-9H-purin-6-yl)piperazin-1-yl)-2-(4-chlorophenoxy)ethanone]
HL-60 cells; Homo sapiens, 48 h
  IC50: 1.26 µM
HSB-2 cells; Homo sapiens, HSB2, 48 h
  IC50: 4.51 µM

## Nc1nc(N2CCN(C(=O)Nc3ccc(Br)cc3)CC2)c2nc(-c3ccc(F)cc3)sc2n1 [Example 218, 4-(5-amino-2-(4-fluorophenyl)thiazolo[5,4-d]pyrimidin-7-yl)-N-(4-bromophenyl)piperazine-1-carboxamide]
HL-60 cells; Homo sapiens, 48 h
  IC50: 7.35 µM
HSB-2 cells; Homo sapiens, HSB2, 48 h
  IC50: 7.05 µM

## CSc1nc2c(N3CCN(C(=O)COc4ccc(Cl)cc4)CC3)nc(N)nc2n1C [Example 428, 1-(4-(2-amino-9-methyl-8-(methylthio)-9H-purin-6-yl)piperazin-1-yl)-2-(4-chlorophenoxy)ethanone]
HL-60 cells; Homo sapiens, 48 h
  IC50: 1.59 µM
HSB-2 cells; Homo sapiens, HSB2, 48 h
  IC50: 0.75 µM

## Nc1nc(N2CCN(C(=O)COc3cccc([N+](=O)[O-])c3)CC2)c2nc(CCc3ccc(F)cc3)sc2n1 [Example 131, 5-amino-2-[2-(4-fluorophenyl)ethyl]-7-(4-[2-(3-nitrophenoxy)acetyl]piperazin-1-yl)-thiazolo[5,4-d]pyrimidine]
HL-60 cells; Homo sapiens, 48 h
  IC50: > 10 µM
HSB-2 cells; Homo sapiens, HSB2, 48 h
  IC50: > 10 µM

## Nc1nc(N2CCN(C(=O)COc3ccc(Cl)cc3)CC2)c2nc(C3CC3)sc2n1 [Example 119, 5-amino-2-cyclopropyl-7-[4-(4-chlorophenoxyacetyl)piperazin-1-yl]-thiazolo[5,4-d]pyrimidine]
HL-60 cells; Homo sapiens, 48 h
  IC50: 3.81 µM
HSB-2 cells; Homo sapiens, HSB2, 48 h
  IC50: 3.03 µM

## N#Cc1ccc(NC(=O)N2CCN(c3nc(N)nc4sc(-c5ccc(F)cc5)nc34)CC2)cc1 [Example 216, 4-(5-amino-2-(4-fluorophenyl)thiazolo[5,4-d]pyrimidin-7-yl)-N-(4-cyanophenyl)piperazine-1-carboxamide]
HL-60 cells; Homo sapiens, 48 h
  IC50: 6.41 µM
HSB-2 cells; Homo sapiens, HSB2, 48 h
  IC50: 4.9 µM

## Nc1nc(N2CCN(C(=O)COc3ccccc3)CC2)c2cc(-c3ccccc3)sc2n1 [Example 332, 1-(4-(2-amino-6-phenylthieno[2,3d]pyrimidin-4-yl)piperazin-1-yl)-2-phenoxyethanone]
HL-60 cells
  IC50: > 10 µM
HSB-2 cells
  IC50: 5.5 µM

## Nc1nc(N2CCN(C(=O)COc3ccc(F)cc3)CC2)c2nc(-c3ccco3)sc2n1 [Example 209, 1-(4-(5-amino-2-(furan-2-yl)thiazolo[5,4-d]pyrimidin-7-yl)piperazin-1-yl)-2-(4-fluorophenoxy)ethanone]
HL-60 cells; Homo sapiens, 48 h
  IC50: 0.57 µM
HSB-2 cells; Homo sapiens, HSB2, 48 h
  IC50: 0.51 µM

## Cc1cccc(NC(=O)N2CCCN(c3nc(N)nc4[nH]c(-c5ccc(F)cc5)nc34)CC2)c1 [Example 422, 4-(2-amino-8-(4-fluorophenyl)-9H-purin-6-yl)-N-m-tolyl-1,4-diazepane-1-carboxamide]
HL-60 cells; Homo sapiens, 48 h
  IC50: > 10 µM
HSB-2 cells; Homo sapiens, HSB2, 48 h
  IC50: > 10 µM

## CCCCCc1nc2c(N3CCN(C(=O)COc4ccc(Cl)cc4)CC3)nc(N)nc2o1 [Example 188, 5-amino-7-[4-(4-chlorophenoxyacetyl)piperazin-1-yl]-2-pentyloxazolo[5,4-d]pyrimidine]
HL-60 cells; Homo sapiens, 48 h
  IC50: > 10 µM
HSB-2 cells; Homo sapiens, HSB2, 48 h
  IC50: > 10 µM

## Nc1nc(N2CCN(C(=O)COc3ccc(Cl)cc3)CC2)c2nc(-c3ccc(Br)cc3)[nH]c2n1 [Example 391, 1-(4-(2-amino-8-(4-bromophenyl)-9H-purin-6-yl)piperazin-1-yl)-2-(4-chlorophenoxy)ethanone]
HL-60 cells; Homo sapiens, 48 h
  IC50: 3.65 µM
HSB-2 cells; Homo sapiens, HSB2, 48 h
  IC50: 2.14 µM

## Nc1nc(N2CCN(C(=O)COc3ccc(Cl)cc3)CC2)c2nc(-c3ccc(F)cc3)[nH]c2n1 [Example 389, 1-(4-(2-amino-8-(4-fluorophenyl)-9H-purin-6-yl)piperazin-1-yl)-2-(4-chlorophenoxy)ethanone]
HL-60 cells; Homo sapiens, 48 h
  IC50: > 10 µM
